Results on 15 compounds are retold here after patent EP4578856A1, “HETEROCYCLIC COMPOUND” (Ubience Inc., priority 2022, dated 2024).

For this experiment, the target named is ROCK2 protein (Homo sapiens, UniProt O75116). The experiment can be described thus: Degradation inducing activity of ROCK2 protein in HUVEC cells, Western blotting (Simple Western JESS). Format: cell-based. Set-up: endogenous in cells; host or cells: HUVEC (ATCC CRL-1730). To be noted: HUVEC, 24 h; for inhibition at 1 µM: degradation rate at 1 µM; for inhibition at 10 µM: degradation rate at 10 µM. An outline of the steps: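 HUVEC cells treated 24 h with compound at 10 µM or 1 µM, then lysed; ROCK2 quantified by capillary Western (Simple Western JESS) using rabbit mAb D1B1, normalized to total loaded protein. Degradation rate (%) calculated relative to DMSO control set at 100%, binned A ≥75%, B 50–75%, C 25–50%, D <25%.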
Chain of ROCK2 protein (O75116 whole entry): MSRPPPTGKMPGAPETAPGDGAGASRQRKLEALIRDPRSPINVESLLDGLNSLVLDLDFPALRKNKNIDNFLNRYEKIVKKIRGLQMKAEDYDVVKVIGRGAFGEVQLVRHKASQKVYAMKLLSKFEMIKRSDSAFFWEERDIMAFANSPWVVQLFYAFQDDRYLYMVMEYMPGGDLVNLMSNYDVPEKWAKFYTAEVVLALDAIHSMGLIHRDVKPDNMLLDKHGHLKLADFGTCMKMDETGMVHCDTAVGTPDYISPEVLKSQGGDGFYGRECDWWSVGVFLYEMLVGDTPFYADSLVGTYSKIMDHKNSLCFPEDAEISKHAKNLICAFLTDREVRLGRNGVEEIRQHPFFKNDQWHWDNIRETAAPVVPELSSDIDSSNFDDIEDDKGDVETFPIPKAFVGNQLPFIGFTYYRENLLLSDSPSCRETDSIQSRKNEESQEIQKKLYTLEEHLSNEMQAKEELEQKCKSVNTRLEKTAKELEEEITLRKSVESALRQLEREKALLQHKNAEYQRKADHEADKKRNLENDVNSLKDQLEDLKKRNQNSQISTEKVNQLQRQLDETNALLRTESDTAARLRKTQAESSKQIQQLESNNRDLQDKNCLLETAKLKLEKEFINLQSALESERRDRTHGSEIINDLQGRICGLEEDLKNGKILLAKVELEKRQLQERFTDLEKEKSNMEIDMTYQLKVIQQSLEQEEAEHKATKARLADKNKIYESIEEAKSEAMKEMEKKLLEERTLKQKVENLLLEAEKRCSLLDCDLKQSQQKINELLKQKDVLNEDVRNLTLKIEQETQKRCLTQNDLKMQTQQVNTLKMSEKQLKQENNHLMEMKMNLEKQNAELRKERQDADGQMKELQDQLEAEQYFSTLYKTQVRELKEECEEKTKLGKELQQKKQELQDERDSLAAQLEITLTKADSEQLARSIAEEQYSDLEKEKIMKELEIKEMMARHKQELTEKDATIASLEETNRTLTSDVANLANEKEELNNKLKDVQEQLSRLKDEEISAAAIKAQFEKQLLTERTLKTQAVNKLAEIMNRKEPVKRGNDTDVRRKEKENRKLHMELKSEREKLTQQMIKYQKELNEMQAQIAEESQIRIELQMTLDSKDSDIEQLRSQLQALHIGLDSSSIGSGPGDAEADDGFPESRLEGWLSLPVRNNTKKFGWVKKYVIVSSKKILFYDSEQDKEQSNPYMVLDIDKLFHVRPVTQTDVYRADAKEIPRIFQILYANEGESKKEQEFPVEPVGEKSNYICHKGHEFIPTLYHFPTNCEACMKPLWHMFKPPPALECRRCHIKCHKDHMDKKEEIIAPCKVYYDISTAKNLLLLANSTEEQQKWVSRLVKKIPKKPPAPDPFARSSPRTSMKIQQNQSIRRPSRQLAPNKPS

Where only a bound is given, the exact number is not on record here.

By inhibition is commonly meant how much of the control response was suppressed. Read a low inhibition as little suppression. Compound `COC[C@H]1CN[C@H](C)CN1CC(=O)N1CC(C)(C)c2ncc(Cc3cccc(OCCOCCN[C@H](C)c4ccc(C(=O)Nc5ccncc5)cc4)c3)cc21` [Example 43, 4-((R)-1-((2-(2-(3-((1-(2-((2R,5R)-2-(Methoxymethyl)-5-methylpiperazin-1-yl)acetyl)-3,3-dimethyl-2,3-dihydro-1H-pyrrolo[3,2-b]pyridin-6-yl)methyl)phenoxy)ethoxy)ethyl)amino)ethyl)-N-(pyridin-4-yl)benzamide] displayed an inhibition at 1 µM of 25 to 50% and an inhibition at 10 µM of at least 75%.
The matching figures for `COC[C@H]1CN[C@H](C)CN1CC(=O)N1CC(C)(C)c2ncc(Cc3cccc(OCCOCCOCCOCCN[C@H](Cc4cccc(F)c4)C(=O)Nc4ccc(-c5ccncc5)cc4)c3)cc21` [Example 52, (R)-2-(3-Fluorobenzyl)-14-(3-((1-(2-((2R,5R)-2-(methoxymethyl)-5-methylpiperazin-1-yl)acetyl)-3,3-dimethyl-2,3-dihydro-1H-pyrrolo[3,2-b]pyridin-6-yl)methyl)phenoxy)-N-(4-(pyridin-4-yl)phenyl)-6,9,12-trioxa-3-azatetradecanamide]: 25 to 50% and 50 to 75%.
The matching figures for `C[C@@H]1CN(CC(=O)N2CC(C)(C)c3ncc(Cc4ccc(F)cc4)cc32)[C@@H](CN(C)CCOCCOCCOCCOCCOCCOCCOCCN[C@H](C)c2ccc(C(=O)Nc3ccncc3)cc2)CN1` [Example 7, 4-((R)-1-((2R,5R)-1-(2-(6-(4-Fluorobenzyl)-3,3-dimethyl-2,3-dihydro-1H-pyrrolo[3,2-b]pyridin-1-yl)-2-oxoethyl)-5-methylpiperazin-2-yl)-2-methyl-5,8,11,14,17,20,23-heptaoxa-2,26-diazaoctacosan-27-yl)-N-(pyridin-4-yl)benzamide]: 50 to 75% and 50 to 75%.
The matching figures for `C[C@@H]1CN(CC(=O)N2CC(C)(C)c3ncc(Cc4ccc(F)cc4)cc32)[C@@H](CN(C)CCOCCOCCOCCOCCOCCN[C@H](C)c2ccc(C(=O)Nc3ccncc3)cc2)CN1` [Example 5, 4-((R)-1-((2R,5R)-1-(2-(6-(4-Fluorobenzyl)-3,3-dimethyl-2,3-dihydro-1H-pyrrolo[3,2-b]pyridin-1-yl)-2-oxoethyl)-5-methylpiperazin-2-yl)-2-methyl-5,8,11,14,17-pentaoxa-2,20-diazadocosan-21-yl)-N-(pyridin-4-yl)benzamide]: 25 to 50% and under 25%.
For the compound `COC[C@H]1CN[C@H](C)CN1CC(=O)N1CC(C)(C)c2ncc(Cc3ccccc3OCCOCCOCCOCCOCCOCCOCCNC[C@@H](C(=O)Nc3ccc4cnccc4c3)c3ccccc3)cc21` [Example 83, (S)-N-(Isoquinolin-6-yl)-1-(2-((1-(2-((2R,5R)-2-(methoxymethyl)-5-methylpiperazin-1-yl)acetyl)-3,3-dimethyl-2,3-dihydro-1H-pyrrolo[3,2-b]pyridin-6-yl)methyl)phenoxy)-23-phenyl-3,6,9,12,15,18-hexaoxa-21-azatetracosan-24-amide], the inhibition at 1 µM fell in the range of 50 to 75% and the inhibition at 10 µM is at least 75%.
The compound `COC[C@H]1CN[C@H](C)CN1CC(=O)N1CC(C)(C)c2nc(CN(C)CCOCCN[C@H](C)c3ccc(C(=O)Nc4ccncc4)cc3)c(Cc3ccc(F)cc3)cc21` [Example 22, 4-((R)-1-((2-(2-(((6-(4-Fluorobenzyl)-1-(2-((2R,5R)-2-(methoxymethyl)-5-methylpiperazin-1-yl)acetyl)-3,3-dimethyl-2,3-dihydro-1H-pyrrolo[3,2-b]pyridin-5-yl)methyl)(methyl)amino)ethoxy)ethyl)amino)ethyl)-N-(pyridin-4-yl)benzamide] registered an inhibition at 1 µM of under 25% and an inhibition at 10 µM of at least 75%.
In the case of `C[C@@H]1CN(CC(=O)N2CC(C)(C)c3ncc(Cc4ccc(F)cc4)cc32)[C@@H](CN(C)CCOCCOCCOCCOCCOCCOCCN[C@H](C)c2ccc(C(=O)Nc3ccncc3)cc2)CN1` [Example 6, 4-((R)-1-((2R,5R)-1-(2-(6-(4-Fluorobenzyl)-3,3-dimethyl-2,3-dihydro-1H-pyrrolo[3,2-b]pyridin-1-yl)-2-oxoethyl)-5-methylpiperazin-2-yl)-2-methyl-5,8,11,14,17,20-hexaoxa-2,23-diazapentacosan-24-yl)-N-(pyridin-4-yl)benzamide], the inhibition at 1 µM was 50 to 75% and the inhibition at 10 µM is at least 75%.
The corresponding values for `C[C@@H]1CN(CC(=O)N2CC(C)(C)c3ncc(Cc4ccc(F)cc4)cc32)[C@@H](CN(C)CCOCCOCCOCCNC[C@@H](C(=O)Nc2ccc3cnccc3c2)c2ccccc2)CN1` [Example 17, (S)-1-((2R,5R)-1-(2-(6-(4-Fluorobenzyl)-3,3-dimethyl-2,3-dihydro-1H-pyrrolo[3,2-b]pyridin-1-yl)-2-oxoethyl)-5-methylpiperazin-2-yl)-N-(isoquinolin-6-yl)-2-methyl-16-phenyl-5,8,11-trioxa-2,14-diazaheptadecan-17-amide] are 25 to 50% and at least 75%.
The matching figures for `COC[C@H]1CN[C@H](C)CN1CC(=O)N1CC(C)(C)c2nc(CN(C)CCOCCOCCOCCOCCOCCN[C@H](C)c3ccc(C(=O)Nc4ccncc4)cc3)c(Cc3ccc(F)cc3)cc21` [Example 26, 4-((R)-1-(6-(4-Fluorobenzyl)-1-(2-((2R,5R)-2-(methoxymethyl)-5-methylpiperazin-1-yl)acetyl)-3,3-dimethyl-2,3-dihydro-1H-pyrrolo[3,2-b]pyridin-5-yl)-2-methyl-5,8,11,14,17-pentaoxa-2,20-diazadocosan-21-yl)-N-(pyridin-4-yl)benzamide]: 50 to 75% and at least 75%.
The corresponding values for `COC[C@H]1CN[C@H](C)CN1CC(=O)N1CC(C)(C)c2ncc(Cc3cccc(OCCOCCOCCOCCOCCOCCN[C@H](C)c4ccc(C(=O)Nc5ccncc5)cc4)c3)cc21` [Example 47, 4-((R)-20-(3-((1-(2-((2R,5R)-2-(Methoxymethyl)-5-methylpiperazin-1-yl)acetyl)-3,3-dimethyl-2,3-dihydro-1H-pyrrolo[3,2-b]pyridin-6-yl)methyl)phenoxy)-6,9,12,15,18-pentaoxa-3-azaicosan-2-yl)-N-(pyridin-4-yl)benzamide] are 50 to 75% and at least 75%.
The compound `COC[C@H]1CN[C@H](C)CN1CC(=O)N1CC(C)(C)c2ncc(Cc3cccc(OCCOCCOCCN[C@H](Cc4cccc(F)c4)C(=O)Nc4ccc(-c5ccncc5)cc4)c3)cc21` [Example 51, (R)-3-(3-Fluorophenyl)-2-((2-(2-(2-(3-((1-(2-((2R,5R)-2-(methoxymethyl)-5-methylpiperazin-1-yl)acetyl)-3,3-dimethyl-2,3-dihydro-1H-pyrrolo[3,2-b]pyridin-6-yl)methyl)phenoxy)ethoxy)ethoxy)ethyl)amino)-N-(4-(pyridin-4-yl)phenyl)propenamide] had an inhibition at 1 µM of 50 to 75% and an inhibition at 10 µM of at least 75%.
The corresponding values for `COC[C@H]1CN[C@H](C)CN1CC(=O)N1CC(C)(C)c2nc(CN(C)CCOCCOCCN[C@H](Cc3cccc(F)c3)C(=O)Nc3ccc(-c4ccncc4)cc3)c(Cc3ccc(F)cc3)cc21` [Example 30, (R)-12-(3-Fluorobenzyl)-1-(6-(4-fluorobenzyl)-1-(2-((2R,5R)-2-(methoxymethyl)-5-methylpiperazin-1-yl)acetyl)-3,3-dimethyl-2,3-dihydro-1H-pyrrolo[3,2-b]pyridin-5-yl)-2-methyl-N-(4-(pyridin-4-yl)phenyl)-5,8-dioxa-2,11-diazatridecan-13-amide] are under 25% and under 25%.
The corresponding values for `COC[C@H]1CN[C@H](C)CN1CC(=O)N1CC(C)(C)c2ncc(Cc3cccc(OCCOCCOCCOCCOCCN[C@H](Cc4cccc(F)c4)C(=O)Nc4ccc(-c5ccncc5)cc4)c3)cc21` [Example 53, (R)-2-(3-Fluorobenzyl)-17-(3-((1-(2-((2R,5R)-2-(methoxymethyl)-5-methylpiperazin-1-yl)acetyl)-3,3-dimethyl-2,3-dihydro-1H-pyrrolo[3,2-b]pyridin-6-yl)methyl)phenoxy)-N-(4-(pyridin-4-yl)phenyl)-6,9,12,15-tetraoxa-3-azaheptadecanamide] are under 25% and 50 to 75%.
The matching figures for `COC[C@H]1CN[C@H](C)CN1CC(=O)N1CC(C)(C)c2nc(CN(C)CCOCCOCCOCCOCCNC[C@@H](C(=O)Nc3ccc4cnccc4c3)c3ccccc3)c(Cc3ccc(F)cc3)cc21` [Example 39, (S)-1-(6-(4-Fluorobenzyl)-1-(2-((2R,5R)-2-(methoxymethyl)-5-methylpiperazin-1-yl)acetyl)-3,3-dimethyl-2,3-dihydro-1H-pyrrolo[3,2-b]pyridin-5-yl)-N-(isoquinolin-6-yl)-2-methyl-19-phenyl-5,8,11,14-tetraoxa-2,17-diazaicosan-20-amide]: 25 to 50% and at least 75%.
`COC[C@H]1CN[C@H](C)CN1CC(=O)N1CC(C)(C)c2ncc(Cc3ccccc3OCCOCCOCCOCCOCCOCCOCCN[C@H](C)c3ccc(C(=O)Nc4ccncc4)cc3)cc21` [Example 69, 4-((R)-23-(2-((1-(2-((2R,5R)-2-(Methoxymethyl)-5-methylpiperazin-1-yl)acetyl)-3,3-dimethyl-2,3-dihydro-1H-pyrrolo[3,2-b]pyridin-6-yl)methyl)phenoxy)-6,9,12,15,18,21-hexaoxa-3-azatricosan-2-yl)-N-(pyridin-4-yl)benzamide] gave an inhibition at 1 µM of at least 75% and an inhibition at 10 µM of at least 75%.
